Assay results taken from patent US8865913B2, “Crystalline forms and processes for their preparation” (BIAL-Portela & C.A., S.A, priority 2010, dated 2014).

Tests used:
Format in all cases: physicochemical
[1] = Thermogravimetric analysis (TGA); details: sample no. 79
Procedure: 4. Thermogravimetric Analysis (TGA)
TG analyses were performed using a TA Instruments 2950 and Q5000 thermogravimetric analyzer. Temperature calibration was performed using nickel and Alumel™. Each sample was placed in an aluminum pan and inserted into the TG furnace. The furnace was heated under a nitrogen purge.
The method code for the thermogram (shown by the list of Figures in the “Brief Description of the Figures” section above) is an abbreviation for the start and end temperature as well as the heating rate; e.g., 25-350-10 means “from 25° C. to 350° C., at 10° C./min”.

[2] = Correlated thermogravimetric-infrared analysis (TG-IR); details: sample no. 79
Procedure: 5. Correlated Thermogravimetric—Infrared Analysis (TG-IR)
Thermogravimetric infrared (TG-IR) analysis was performed on a TA Instruments thermogravimetric (TG) analyzer model 2050 interfaced to a Magna-IR 560® Fourier transform infrared (FT-IR) spectrophotometer (Thermo Nicolet) equipped with an Ever-Glo mid/far IR source, a potassium bromide (KBr) beamsplitter, and a mercury cadmium telluride (MCT-A) detector. The FT-IR wavelength verification was performed using polystyrene, and the TG calibration standards were nickel and Alumel™. The sample was placed in a platinum sample pan, and the pan was inserted into the TG furnace. The TG instrument was started first, immediately followed by the FT-IR instrument. The TG instrument was operated under a flow of helium at 90 and 10 cc/min. for the purge and balance, respectively. The furnace was heated under […] at a rate of 20° C./minute to a final temperature of 250° C. IR spectra were collected approximately every 32 seconds for approximately 13 minutes. Each IR spectrum represents 32 co-added scans collected at a spectral resolution of 4 cm^−1. Volatiles were identified from a search of the High Resolution Nicolet Vapor Phase spectral library.

[3] = X-ray powder diffraction (XRPD)
Procedure: 3. X-ray Powder Diffraction (XRPD)
Selected XRPD patterns were collected with an Inel XRG-3000 diffractometer. An incident beam of Cu Kα radiation was produced using a fine-focus tube and a parabolically graded multilayer mirror. Prior to the analysis, a silicon standard (NIST SRM 640c) was analyzed to verify the Si 111 peak position. A specimen of the sample was packed into a thin-walled glass capillary, and a beam-stop was used to minimize the background from air. Diffraction patterns were collected in transmission geometry using Windif v. 6.6 software and a curved position-sensitive Equinox detector with a […] of 120°.
Selected XRPD patterns were collected using a Bruker D8 DISCOVER diffractometer and Bruker's General Area-Detector Diffraction System (GADDS, v. 4.1.20). An incident microbeam of Cu Kα radiation was produced using a long, fine-focus tube (40 kV, 40 mA), a parabolically graded multilayer mirror, and a 0.5 mm double-pinhole collimator. Prior to the analysis, a silicon standard (NIST SRM 640c) was analyzed to verify the Si 111 peak position. […]
XRPD patterns for microplate samples were collected using a Bruker D8 DISCOVER diffractometer and Bruker's General Area-Detector Diffraction System (GADDS, v. 4.1.20). […] Prior to the analysis, a silicon standard (NIST SRM 640c) was analyzed to verify the Si 111 peak position. […]

TGA sharp weight loss (onset) [1]: Sharp weight loss at ~254 °C (onset)
SMILES: Fc1cc(F)c2c(c1)C[C@@H](n1c(CCNCc3ccccc3)c[nH]c1=S)CO2 [Form B, 1-[(3R)-6,8-difluoro-3,4-dihydro-2H-1-benzopyran-3-yl]-1,3-dihydro-5-[2-[(phenylmethyl)amino]ethyl]-2H-imidazole-2-thione]
TGA weight loss ([1]; between ~138° C. and ~190° C.): ~4.7 wt % loss between ~138 °C and ~190 °C
TG-IR (IR) identification of volatile [2]: (IR): Consistent with loss of ethyl acetate.
XRPD result ([3]; sample no. 48 (crystallized from tetrahydrofuran/ethyl acetate)): Crystalline consistent with Form B of compound 2
XRPD result ([3]; sample no. 79 (organic vapor stress of amorphous material in ethyl acetate)): Crystalline consistent with Form B of compound 2
